Values quoted from earlier work as cited in patent publication US7780990B2, “Combination therapeutic compositions and method of use” (priority 2005, dated 2010).

Settings: intravenous infusion 30 g over 30 min, patients with type II diabetes

C[N+](C)(C)CC(=O)O [betaine, glycine betaine]
blood pressure: reduces blood pressure
haemodynamic functions: improves haemodynamic functions
